# Values of other authors as cited in publication PMC8380238, “Structure-based virtual screening of CYP1A1 inhibitors: towards rapid tier-one assessment of potential developmental toxicants” (Archives of Toxicology, 2021).
# Where a name gives a salt, the structure may show the parent alone. Read-outs that look alike come from different tables or passages of the source.
# Test system: human CYP1A1
# Parameters: unit not given beside the values
# Settings: cited from earlier work
Compound,AC50,"AC50 (ToxCast NVS_ADME_hCYP1A1, NA cells left out, ref ToxCast)"
CCOC(=O)CC(SP(=S)(OC)OC)C(=O)OCC (centres unmarked) [Malathion],0.4737,
C=C(C)[C@H]1Cc2c(ccc3c2O[C@@H]2COc4cc(OC)c(OC)cc4[C@@H]2C3=O)O1 [Rotenone],0.8835,
CNc1cnn(-c2cccc(C(F)(F)F)c2)c(=O)c1Cl [Norflurazon],0.8239,
CCOP(=S)(OCC)Oc1ccc2c(C)c(Cl)c(=O)oc2c1 [Coumaphos],-0.5619,
OC(c1ccc(Cl)cc1)(c1cncnc1)c1ccccc1Cl (centres unmarked) [Fenarimol],0.89,
CC#Cc1cc(C)nc(Nc2ccccc2)n1 [Mepanipyrim],-0.2464,
CCCOC/C(=N\c1ccc(Cl)cc1C(F)(F)F)n1ccnc1 [Triflumizole],0.6164,
Oc1cc2ccccc2c2ccccc12 [9-Phenanthrol],0.7409,
"CCCCCCCCn1sc(Cl)c(Cl)c1=O [4,5-Dichloro-2-octyl-3(2H)-isothiazolone]",0.9038,
CC1COC(Cn2cncn2)(c2ccc(Oc3ccc(Cl)cc3)cc2Cl)O1 (centres unmarked) [Difenoconazole],0.1639,
CCOP(=S)(OCC)Oc1ccc([N+](=O)[O-])cc1 [Parathion],0.5508,
COP(=S)(OC)Oc1ccc([N+](=O)[O-])cc1 [Methyl parathion],0.8544,
"COc1cc(-c2ccc(N)c(OC)c2)ccc1N [3,3'-Dimethoxybenzidine]",0.5453,
O=[N+]([O-])C(Br)(CO)CO [Bronopol],0.9179,
O=C(c1ccc(OCCN2CCCCC2)cc1)c1c(-c2ccc(O)cc2)sc2cc(O)ccc12 [Raloxifene hydrochloride],0.811,
"CN(C)c1ccc(Cc2ccc(N(C)C)cc2)cc1 [4,4'-Methylenebis(N,N-dimethylaniline)]",0.5763,
CC(C)(O)c1coc(S(=O)(=O)NC(=O)Nc2c3c(cc4c2CCC4)CCC3)c1 [CP-456773],-1.144,
C=CCc1cc(S(=O)(=O)c2ccc(O)c(CC=C)c2)ccc1O,0.2892,
CC1(C)CCC(=Cc2ccc(Cl)cc2)C1(O)Cn1cncn1 (centres unmarked) [Triticonazole],-0.101,
Oc1ccc2c(c1)-c1ccccc1C2 [3-Hydroxyfluorene],0.7484,
C#CCOC(=O)[C@@H](C)Oc1ccc(Oc2ncc(Cl)cc2F)cc1 [Clodinafop-propargyl],0.4557,
COC(=O)c1c(Cl)c(Cl)c(C(=O)OC)c(Cl)c1Cl [Chlorthal-dimethyl],,-0.9489
Oc1ccc(C(c2ccc(O)cc2)C(Cl)(Cl)Cl)cc1,0.8687,
CN(C)c1ccc(C(=C2C=CC(=[N+](C)C)C=C2)c2ccc(N(C)C)cc2)cc1 [Gentian Violet],0.2591,
Cc1[nH]cnc1C[C@H]1CCc2c(C)c3ccccc3n2C1=O.Cl [Fabesetron hydrochloride],0.583,
CCCN(CCOc1c(Cl)cc(Cl)cc1Cl)C(=O)n1ccnc1 [Prochloraz],-0.384,
